# Experimental data: US8492426B1, “Use of carvedilol for treatment of diabetes mellitus” (priority 2012, dated 2013)
# Legend:
# [1] = test system: patients with diabetes mellitus already on insulin; test: Group 1: diabetes mellitus patients already on insulin with uncontrolled blood sugar, prescribed Carvedilol with diet; format: in vivo, human
# Experimental: Data has been collected utilizing the various methods described herein and included for purposes of showing results and further exemplifying the preferred embodiments of this invention. A study was performed on two groups: Group 1 and Group 2. Both groups included patients with diabetes mellitus and a history of uncontrolled blood sugar. The patients of each group were between the ages of 40 and 85 and consisted of both males and females and various ethnicities. Group 1 consisted of patients that were already on insulin (humulin mix, novolog mix, etc.) and who were unable to control their blood sugar. The patients in Group 2 were taking oral medications, were unable to control their blood sugar, and needed insulin to regulate their disease. Normal blood sugar levels were considered to be 120 mg % (mg % is milligram per 100 cc blood), which was equivalent to 6.0 HbA1c before meals or while fasting. After the first visit and examination, the patients' blood sugar and HbA1c levels were reviewed. […] Then patients were requested to report their blood sugar weekly. […] HbA1c levels were checked approximately 2-3 months after controlling the blood sugar. Group 1 data is presented below for patients with Type II diabetes mellitus who were already taking insulin and were unable to control their blood sugar. The data includes blood sugar and HbA1c levels before and after taking Carvedilol. • 1. JBM-65-M was first seen in January 2012. Their HbA1c was more than 9.0 and fasting plasma glucose was 282 mg %. They were taking 35 units at night of Lente insulin and regular insulin before each meal at a dosage of 10-30 units, on a sliding scale. They began taking an effective dosage of Carvedilol with a diet in February 2012. […] BS-81-F was taking 36 units of Humulin N twice a day in February 2012. Their HbA1c was 7.6 and mean plasma glucose was 171 mg %. They began taking an effective dosage of Carvedilol immediately. In April 2012 their HbA1c was 6.5 and their mean plasma glucose was 140 mg %. […] patient four is a Type I diabetic with two episodes of myocardial infarction and four stents post Percutaneous Transluminal Coronary Angioplasty (PTCA). In January 2012 […] HbA1c was 8.2 with a mean […] glucose of 203 mg %. They were taking 400 units of Novolog mix 70/30 in two divided doses. After Carvedilol and an improved diet, the dose of insulin has been reduced to a total of 90 units a day in two divided doses. Their HbA1c is the same but recent blood sugar was 134 mg %. • 4. […] They were taking Novolog 70/30 40 units twice a day. They were started on Carvedilol with an improved diet. […] Currently they are reporting a plasma blood glucose below 120 mg %. • 5. […] They were taking Novlog mix 70/30 20 units twice a day. […] Group 2
# [2] = test system: Type II diabetes mellitus patients; test: Group 2: Type II diabetes mellitus patients uncontrolled on diet and oral medication, Carvedilol used in place of insulin; format: in vivo, human
# Experimental: Data has been collected utilizing the various methods described herein and included for purposes of showing results and further exemplifying the preferred embodiments of this invention. A study was performed on two groups: Group 1 and Group 2. Both groups included patients with diabetes mellitus and a history of uncontrolled blood sugar. The patients of each group were between the ages of 40 and 85 and consisted of both males and females and various ethnicities. Group 1 consisted of patients that were already on insulin (humulin mix, novolog mix, etc.) and who were unable to control their blood sugar. The patients in Group 2 were taking oral medications, were unable to control their blood sugar, and needed insulin to regulate their disease.
# Normal blood sugar levels were considered to be 120 mg % (mg % is milligram per 100 cc blood), which was equivalent to 6.0 HbA1c before meals or while fasting. After the first visit and examination, the patients' blood sugar and HbA1c levels were reviewed. […] Then patients were requested to report their blood sugar weekly. […] HbA1c levels were checked approximately 2-3 months after controlling the blood sugar.
# Group 2 consisted of Type II diabetes mellitus patients who could not control their blood sugar on diet nor oral medication and would need to start insulin. Carvedilol was used in place of insulin to control blood sugar as well as other anti-diabetic oral medications. • 1. […] Sitagliptin was then discontinued and the hypoglycemia subsequently disappeared. […] The last recorded HbA1c was 6.8 • 2. patient three had poorly controlled blood sugar but managed an HbA1c of 8.0 and mean fasting glucose of 183 mg %. They were taking three oral medications: Metformin 1000 mg BID, Sitagliptin 100 mg daily and Sulfonylurea. They were started on Carvedilol and their blood sugar came down to 90 mg %. […] Their HbA1c level is 6.5 • 3. […] They were prescribed Metformin and Glyburide Micro. They were also given Bayetta, however their blood sugar remained uncontrolled. […] Their HbA1c level is 8.4 • 4. […] The patient also suffered from severe Peripheral Neuritis. Their HbA1c was 10.2 in December 2011. The patient was taking Metformin 1000 mg twice a day, Sitagliptin 100 mg daily and Glyburide Micro 6 mg twice a day. The patient was started on Carvedilol in February 2012. Their HbA1c in late March 2012 was down to 8.2 with a mean plasma glucose of 189 mg %. […] Their HbA1c is now 7.8. • 5. […] They have been on Janumet […] twice a day, Glymeperide which was changed to Glyburide Micro 3 mg twice daily. […] Carvedilol was added to their regimen and their blood sugar was recently reported at 81 mg %. […] Their HbA1c level is 7.1
smiles,measurement,setting,value
"COc1ccccc1OCCNCC(O)COc1cccc2[nH]c3ccccc3c12 (racemic) [Carvedilol, (±)-1-(Carbazol-4-yloxy-3-[[2-(o-methoxyphenoxy-)ethyl]amino]-2-propanol]",fasting plasma glucose,"[1]; patient five, April 2012, Carvedilol with diet since February 2012, before: 282 mg %",122 mg %
same,HbA1c,"[1]; patient five, April 2012, Carvedilol with diet since February 2012, before: more than 9.0",5.5
same,insulin use after Carvedilol,"[1]; patient five, by April 2012, before: 35 units Lente at night plus 10-30 units regular insulin before each meal",taken off insulin completely
same,dose of insulin after Carvedilol,"[1]; patient four, Type I diabetic, Carvedilol and improved diet, two divided doses, before: 400 units Novolog mix 70/30",90 units a day
same,HbA1c,"[1]; patient four, Type I diabetic, after Carvedilol and improved diet, before: 8.2",the same
same,recent blood sugar,"[1]; patient four, Type I diabetic, after Carvedilol and improved diet, before: mean plasma glucose 203 mg %",134 mg %
same,mean plasma glucose,"[1]; patient nine, April 2012, Carvedilol since February 2012, before: 171 mg %",140 mg %
same,HbA1c,"[1]; patient nine, April 2012, Carvedilol since February 2012, before: 7.6",6.5
same,insulin use after Carvedilol,"[1]; patient nine, by April 2012, before: 36 units Humulin N twice a day",taken off of insulin completely
same,plasma glucose,"[1]; patient seven, renal failure, after five weeks on Carvedilol, off insulin, before: 249 mg %",below 120 mg %
same,HbA1c corresponding to plasma glucose,"[1]; patient seven, after five weeks on Carvedilol, before: 10.3",6.0
same,insulin use after Carvedilol,"[1]; patient seven, after five weeks on Carvedilol, before: Novlog mix 70/30 20 units twice a day",taken off insulin
same,HbA1c,"[1]; patient two, April 2012, Carvedilol with improved diet, off insulin, before (December 2011): 11.4",8.6
same,plasma blood glucose,"[1]; patient two, April 2012, before: 280 mg %",200 mg %
same,insulin use after Carvedilol,"[1]; patient two, before: Novolog 70/30 40 units twice a day",came off of insulin
same,plasma blood glucose,"[1]; patient two, currently reported",below 120 mg %
same,other anti-diabetic medication after Carvedilol,[2]; patient -76,able to stop Glyburide Micro
same,blood sugar,"[2]; patient -76, Carvedilol added to regimen, before: 273 mg % after cortisone shot, mean plasma glucose 163 mg %",81 mg %
same,HbA1c,"[2]; patient -76, on Carvedilol, before: 8.3",7.1
same,HbA1c,"[2]; patient eight, started Carvedilol recently, before: 8.5",8.4
same,blood sugar,"[2]; patient eight, started Carvedilol recently, before: fasting plasma glucose 197 mg %, uncontrolled on Metformin, Glyburide Micro, Bayetta",reached normal levels
same,adverse effect,"[2]; patient one, Carvedilol taken together with Sitagliptin, disappeared after Sitagliptin was discontinued",hypoglycemia
same,last recorded HbA1c,"[2]; patient one, Carvedilol, Sitagliptin discontinued",6.8
same,blood sugar control,"[2]; patient one, Carvedilol, Sitagliptin discontinued, before: blood sugar 200 mg %",controlled the patient's blood sugar
same,other anti-diabetic medication after Carvedilol,[2]; patient six,stopped taking Glyburide Micro
same,mean plasma glucose,"[2]; patient six, late March 2012, Carvedilol since February 2012",189 mg %
same,HbA1c,"[2]; patient six, late March 2012, Carvedilol since February 2012, before (December 2011): 10.2",8.2
same,blood sugar,"[2]; patient six, more recently reported",95 mg %
same,HbA1c,"[2]; patient six, now, after stopping Glyburide Micro",7.8
same,other anti-diabetic medication after Carvedilol,[2]; patient three,discontinued use of Sitagliptin
same,blood sugar,"[2]; patient three, Carvedilol added to Metformin, Sitagliptin, Sulfonylurea, before: mean fasting glucose 183 mg %",90 mg %
same,HbA1c,"[2]; patient three, on Carvedilol, Sitagliptin discontinued, before: 8.0",6.5
